Holding throughout (format): biochemical
The target of one assay is T1, procaspase-7 (Homo sapiens, UniProt P55210).
T1 construct: His6 (C); made in house; host or cells: E. coli BL21(DE3)RP, pET-21b
T1 sequence (P55210 1-303): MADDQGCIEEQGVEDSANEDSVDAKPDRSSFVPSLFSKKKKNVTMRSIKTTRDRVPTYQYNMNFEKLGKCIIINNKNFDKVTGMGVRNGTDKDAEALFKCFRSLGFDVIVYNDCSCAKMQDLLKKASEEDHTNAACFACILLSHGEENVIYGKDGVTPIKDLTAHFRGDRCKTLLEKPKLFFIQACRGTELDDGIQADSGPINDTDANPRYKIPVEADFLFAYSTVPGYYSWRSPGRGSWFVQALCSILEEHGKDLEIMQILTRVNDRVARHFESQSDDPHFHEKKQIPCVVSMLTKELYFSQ
Description: Executioner procaspase-7 activation assay (Ac-DEVD-AFC fluorogenic substrate). The conditions noted are these: incubation with compound for 5 h at 37° C.; 100 nM procaspase. The method, then:
(§1) The executioner procaspase-3, -6 and -7 activation assay protocol involves incubating the target protein at the physiologically-relevant concentration of 100 nM with activating compounds (ranging from 100 nM to 100 uM) in a total volume of 50 μL consisting of a reaction buffer of 50 mM HEPES, pH 7.4, 50 mM KCl, 1 mM DTT and 0.01% Triton-X100 (to reduce false positive hits due to compound aggregation). The procaspase/small molecule incubations are then agitated at 37° C. and assayed at various time points by addition of the fluorogenic peptide substrate 7-Amino-4-trifluoromethylcoumarin-DEVD (Ac-DEVD-AFC) (procaspases-3, -7) or Ac-VEID-AFC (procaspase-6) to a final concentration of 25 μM and analyzed by a kinetic 30 minute assay (excitation 365 nm and emission 495 nm). The final concentration of DMSO in each well is 3% and has no effect on enzyme stability or activity. […] All components of the assay including protein, substrate and inhibitor are stored as frozen aliquots and thawed immediately prior to the assay.
(§2) Tables 1 and 2. Procaspase activation as a result of incubation with compound for 5 h at 37° C. (+++ EC50˜0.5-10 μM; ++ EC50˜10-50 μM; + EC50˜50-200 μM; -no activation observed; ND not determined).

Another assay deals with T2, procaspase-6 (Homo sapiens, UniProt P55212).
T2 sequence (P55212 1-293): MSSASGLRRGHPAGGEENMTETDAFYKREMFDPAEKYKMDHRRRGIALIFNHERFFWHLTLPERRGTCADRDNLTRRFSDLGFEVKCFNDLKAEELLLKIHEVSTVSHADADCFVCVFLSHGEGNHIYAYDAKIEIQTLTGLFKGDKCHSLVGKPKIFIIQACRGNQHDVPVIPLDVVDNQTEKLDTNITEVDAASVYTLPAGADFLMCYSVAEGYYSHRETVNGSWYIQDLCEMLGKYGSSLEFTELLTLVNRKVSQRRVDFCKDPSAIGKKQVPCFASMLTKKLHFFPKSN
Nature of the assay: Executioner procaspase-6 activation assay (Ac-VEID-AFC fluorogenic substrate). The conditions noted are these: incubation with compound for 5 h at 37° C.; 100 nM procaspase. The method, then:
as §1, §2

The next assay concerns the target T3, procaspase-3 (Homo sapiens, UniProt P42574).
T3 construct: His6 (C); made in house; host or cells: E. coli BL21(DE3)RP, pET-23b
T3 sequence (P42574 1-277): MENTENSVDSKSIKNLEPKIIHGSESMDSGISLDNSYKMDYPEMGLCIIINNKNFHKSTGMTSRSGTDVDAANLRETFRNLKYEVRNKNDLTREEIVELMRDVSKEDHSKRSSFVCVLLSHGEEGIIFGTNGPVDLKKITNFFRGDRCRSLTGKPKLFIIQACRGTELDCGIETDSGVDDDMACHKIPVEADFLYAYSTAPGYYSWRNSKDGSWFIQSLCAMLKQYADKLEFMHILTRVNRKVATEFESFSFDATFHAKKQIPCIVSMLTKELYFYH
Description: Executioner procaspase-3 activation assay (Ac-DEVD-AFC fluorogenic substrate). The conditions noted are these: incubation with compound for 5 h at 37° C.; 100 nM procaspase; read-out: Procaspase Activation 3. The method, then: The executioner procaspase-3, -6 and -7 activation assay protocol involves incubating the target protein at the physiologically-relevant concentration of 100 nM with activating compounds (ranging from 100 nM to 100 uM) in a total volume of 50 μL consisting of a reaction buffer of 50 mM HEPES, pH 7.4, 50 mM KCl, 1 mM DTT and 0.01% Triton-X100 (to reduce false positive hits due to compound aggregation). […] All components of the assay including protein, substrate and inhibitor are stored as frozen aliquots and thawed immediately prior to the assay.

For `COc1ccc(OC)c(-c2cccc(NC(=O)c3cc4cccc(OC)c4oc3=O)c2)c1` [compound 57, 8-Methoxy-2-oxo-2H-chromene-3-carboxylic acid (2′,5′-dimethoxy-biphenyl-3-yl)-amide], the EC50 at procaspase-7, on procaspase-6 and at procaspase-3 was > 100 µM throughout.
Turning to `COc1ccc(OC)c(-c2cccc(NC(=O)c3cc4cccc(OC(F)(F)F)c4oc3=O)c2)c1` [compound 58, 8-Trifluoromethoxy-2-oxo-2H-chromene-3-carboxylic acid (2′,5′-dimethoxy-biphenyl-3-yl)-amide], the EC50 at procaspase-7, at procaspase-6 and at procaspase-3 was > 100 µM throughout.
`O=C(Nc1cccc(-c2ccc(Oc3ccccc3)cc2)c1)c1cc2cccc(O)c2oc1=O` [compound 59, 8-Hydroxy-2-oxo-2H-chromene-3-carboxylic acid (4′-phenoxy-biphenyl-3-yl)-amide]: the EC50 on procaspase-7, on procaspase-6 and on procaspase-3 was > 100 µM each time.
In the case of `COc1cccc2cc(C(=O)Nc3cccc(-c4ccc(Oc5ccccc5)cc4)c3)c(=O)oc12` [compound 60, 8-Methoxy-2-oxo-2H-chromene-3-carboxylic acid (4′-phenoxy-biphenyl-3-yl)-amide], the EC50 on procaspase-7, at procaspase-6 and at procaspase-3 was > 100 µM each time.
Regarding `O=C(Nc1cccc(-c2ccc(Oc3ccccc3)cc2)c1)c1cc2cccc(OC(F)(F)F)c2oc1=O` [compound 61, 8-Trifluoromethoxy-2-oxo-2H-chromene-3-carboxylic acid (4′-phenoxy-biphenyl-3-yl)-amide], the EC50 on procaspase-7, on procaspase-6 and on procaspase-3 was > 100 µM in each case.
As to `O=C(Nc1cccc(-c2ccc3c(c2)OCO3)c1)c1cc2cccc(O)c2oc1=O` [compound 62, 8-Hydroxy-2-oxo-2H-chromene-3-carboxylic acid (3-Benzo[1,3]dioxol-5-yl-phenyl)-amide], the EC50 on procaspase-7 was 10 to 50 µM; at procaspase-6 it was > 100 µM; on procaspase-3 it was > 100 µM.
`COc1cccc2cc(C(=O)Nc3cccc(-c4ccc5c(c4)OCO5)c3)c(=O)oc12` [compound 63, 8-Methoxy-2-oxo-2H-chromene-3-carboxylic acid (3-Benzo[1,3]dioxol-5-yl-phenyl)-amide]: the EC50 at procaspase-7, on procaspase-6 and on procaspase-3 was > 100 µM throughout.
For `O=C(Nc1cccc(-c2ccc3c(c2)OCO3)c1)c1cc2cccc(OC(F)(F)F)c2oc1=O` [compound 64, 8-Trifluoromethoxy-2-oxo-2H-chromene-3-carboxylic acid (3-Benzo[1,3]dioxol-5-yl-phenyl)-amide], the EC50 on procaspase-7, on procaspase-6 and at procaspase-3 was > 100 µM throughout.
With `CCOc1ccc(-c2cccc(NC(=O)c3cc4cccc(O)c4oc3=O)c2)cc1C` [compound 65, 8-Hydroxy-2-oxo-2H-chromene-3-carboxylic acid (4′-ethoxy-3′-methyl-biphenyl-3-yl)-amide], the EC50 on procaspase-7, at procaspase-6 and at procaspase-3 was > 100 µM throughout.
Regarding `CCOc1ccc(-c2cccc(NC(=O)c3cc4cccc(OC)c4oc3=O)c2)cc1C` [compound 66, 8-Methoxy-2-oxo-2H-chromene-3-carboxylic acid (4′-ethoxy-3′-methyl-biphenyl-3-yl)-amide], the EC50 at procaspase-7, at procaspase-6 and at procaspase-3 was > 100 µM in each case.
Consider `CCOc1ccc(-c2cccc(NC(=O)c3cc4cccc(OC(F)(F)F)c4oc3=O)c2)cc1C` [compound 67, 8-Trifluoromethoxy-2-oxo-2H-chromene-3-carboxylic acid (4′-ethoxy-3′-methyl-biphenyl-3-yl)-amide], for which the EC50 on procaspase-7, on procaspase-6 and at procaspase-3 was > 100 µM each time.
Take `CCOc1ccc(-c2cccc(NC(=O)c3cc4cccc(O)c4oc3=O)c2)cc1` [compound 68, 8-Hydroxy-2-oxo-2H-chromene-3-carboxylic acid (4′-Ethoxy-biphenyl-3-yl)-amide]: the EC50 on procaspase-7, on procaspase-6 and on procaspase-3 was > 100 µM throughout.
Take `CCOc1ccc(-c2cccc(NC(=O)c3cc4cccc(OC)c4oc3=O)c2)cc1` [compound 69, 8-Methoxy-2-oxo-2H-chromene-3-carboxylic acid (4′-ethoxy-biphenyl-3-yl)-amide]: the EC50 on procaspase-7, on procaspase-6 and on procaspase-3 was > 100 µM throughout.
On to `CCOc1ccc(-c2cccc(NC(=O)c3cc4cccc(OC(F)(F)F)c4oc3=O)c2)cc1` [compound 70, 8-Trifluoromethoxy-2-oxo-2H-chromene-3-carboxylic acid (4′-ethoxy-biphenyl-3-yl)-amide], for which the EC50 at procaspase-7, on procaspase-6 and on procaspase-3 was > 100 µM throughout.
For the compound `O=C(Nc1cccc(-c2ccccc2OC(F)(F)F)c1)c1cc2cccc(O)c2oc1=O` [compound 71, 8-Hydroxy-2-oxo-2H-chromene-3-carboxylic acid (2′-trifluoromethoxy-biphenyl-3-yl)-amide], the EC50 on procaspase-7, on procaspase-6 and at procaspase-3 was > 100 µM each time.
On to `COc1cccc2cc(C(=O)Nc3cccc(-c4ccccc4OC(F)(F)F)c3)c(=O)oc12` [compound 72, 8-Methoxy-2-oxo-2H-chromene-3-carboxylic acid (2′-trifluoromethoxy-biphenyl-3-yl)-amide], for which the EC50 on procaspase-7, on procaspase-6 and at procaspase-3 was > 100 µM each time.
Turning to `O=C(Nc1cccc(-c2ccccc2OC(F)(F)F)c1)c1cc2cccc(OC(F)(F)F)c2oc1=O` [compound 73, 8-Trifluoromethoxy-2-oxo-2H-chromene-3-carboxylic acid (2′-trifluoromethoxy-biphenyl-3-yl)-amide], the EC50 on procaspase-7, on procaspase-6 and on procaspase-3 was > 100 µM in each case.
Turning to `O=C(Nc1cccc(-c2ccc3c(c2)CCO3)c1)c1cc2cccc(O)c2oc1=O` [compound 74, 8-Hydroxy-2-oxo-2H-chromene-3-carboxylic acid [3-(2,3-Dihydro-benzofuran-5-yl)-phenyl]-amide], the EC50 on procaspase-7 is 10 to 50 µM; on procaspase-6 it was > 100 µM; at procaspase-3, > 100 µM.
Turning to `COc1cccc2cc(C(=O)Nc3cccc(-c4ccc5c(c4)CCO5)c3)c(=O)oc12` [compound 75, 8-Methoxy-2-oxo-2H-chromene-3-carboxylic acid [3-(2,3-dihydro-benzofuran-5-yl)-phenyl]-amide], the EC50 on procaspase-7, on procaspase-6 and on procaspase-3 was > 100 µM throughout.
With `O=C(Nc1cccc(-c2ccc3c(c2)CCO3)c1)c1cc2cccc(OC(F)(F)F)c2oc1=O` [compound 76, 8-Trifluoromethoxy-2-oxo-2H-chromene-3-carboxylic acid [3-(2,3-dihydro-benzofuran-5-yl)-phenyl]-amide], the EC50 on procaspase-7, at procaspase-6 and at procaspase-3 was > 100 µM in each case.

(Values after patent publication US8642788B2, “Activators of executioner procaspases 3, 6 and 7” (The Regents of the University of California, priority 2008, dated 2014).)
